Columns and labels:
Assay type in all cases: in vivo, male Sprague-Dawley I.O.P.S. rats
thymus = assay: Systemic activity after local administration: effect on the weight of the thymus; settings: rat, in vivo, 8640 min
Experimental: (§1) The pharmacological activity of the products described in the invention was tested in the rat using a technique similar to that described by C. A. Winter and C. C. Porter (J. Am. Pharm. Ass. 1957, 46, 9, pages 515-519).
(§2) The principle of the test consists in implanting a pellet of cotton wool in the dorsal subcutaneous tissue of the animal. The corticoids to be studied are added to the pellet so that the following tests can be carried out:
(§3) (2) Determination of the systemic activity of the products after local administration
(§4) Local application of the corticoids may result, inter alia, in:
(a) a reduction in the defence systems of the organism, the most notable sign of which is a reduction in the weight of the animals' thymuses.
(§5) The animals are divided into random homogeneous groups of 10 male Sprague-Dawley I.O.P.S. rats with a body weight of between 100 and 120 grams.
(§6) The pellets to be implanted weigh from 35 to 40 mg and are prepared from balls of dental cotton wool. Before being inserted, each pellet is weighed and impregnated with the precise quantity of the product which is to be studied, dissolved in 0.2 ml of chloroform. The chloroform is eliminated by evaporation over a period of 24 hours at ambient temperature.
(§7) Before implantation, each pellet is impregnated with a solution of antibiotics:
(§8) The animals are anaesthetised with ether, and then two pellets are implanted in each animal in the dorsal subcutaneous tissue, on each side of the median line:
(§9) on the left, the pellet containing the product to be tested (treated animal) or the carrier only (control animal);
(§10) on the right, the pellet containing the carrier only.
(§11) The animals are given normal food and are sacrificed six days after the pellets have been implanted.
(2) Determination of the systemic effect
The thymuses are taken from the same animals and weighed. Using the same type of calculation, an ED 50 is determined, which corresponds to the dosage of product resulting in a 50% decrease in weight of the thymuses, compared with the control animals.

granuloma = assay: Local anti-inflammatory activity: inhibition of granuloma formation around implanted cotton wool pellet; settings: for R 1 (relative local anti-inflammatory activity compared with betamethasone 17,21-dipropionate): D.P.B. = 1, calculated from ED50; for R 1 (relative local anti-inflammatory activity compared with betamethasone 17,21-dipropionate) / ED50 (local anti-inflammatory activity, 50% inhibition in granuloma weight): Table 1; for ED50 (local anti-inflammatory activity, 50% inhibition in granuloma weight): rat, cotton pellet granuloma, six days after implantation; for activity compared with betamethasone 17,21-dipropionate (times greater): local anti-inflammatory test
Experimental: A. Winter and C. C. Porter (J. Am. Pharm. Ass. 1957, 46, 9, pages 515-519).
as §2
(1) Determination of the local anti-inflammatory activity
The presence of products within the pellet may inhibit or prevent the formation of a granuloma.
as §5, §6, §7
Streptomycin 0.1 gram/ml.
as §8, §9, §10, §11
(1) Local anti-inflammatory activity
The pellets surrounded by granulomatous tissue are carefully removed and weighed, and then dried until a constant weight is obtained.
The relative activity of the test products compared with betamethasone 17,21-dipropionate is calculated according to the following equation: [formula]

[1] = Systemic activity after local administration: effect on weight gain; settings: rat, in vivo, 8640 min
Experimental: as §1, §2, §3, §4
(b) Disruption of the protein metabolism which causes tissue fusion, resulting in an inhibition of the weight increase in animals.
as §5, §6, §7, §8, §9, §10, §11
(b) Effect on weight gain
The weight gain over six days is determined on the animals before they are sacrificed.
The activity of the products was expressed as the percentage inhibition in the weight gain of the treated animals compared with the weight gain in the control animals.
The ED 30 which corresponds to a 30% inhibition in the weight gain was determined.

| SMILES | ED50 (50% decrease in weight of the thymuses) (thymus) | R 2 (relative effect on thymus weight compared with D.P.B.) (thymus) | R 1 (relative local anti-inflammatory activity compared with betamethasone 17,21-dipropionate) (granuloma) | ED50 (local anti-inflammatory activity, 50% inhibition in granuloma weight) (granuloma) | ED30 (30% inhibition in the weight gain) [1] | R 3 (relative activity on weight gain compared with D.P.B.) [1] | activity compared with betamethasone 17,21-dipropionate (times greater) (granuloma) |
| --- | --- | --- | --- | --- | --- | --- | --- |
| CCC(=O)O[C@]1(C(=O)CSC(=O)CC)CC[C@H]2[C@@H]3C[C@H](C)C4=CC(=O)C=C[C@]4(C)[C@H]3[C@@H](O)C[C@@]21C [Ex. 5, 11β-hydroxy-6α-methyl-pregna-1,4-diene-3,20-dione (or 6α-methylprednisolone) 17-propionate, 21-thiopropionate] | > 1 mg/pellet | < 0.86 | 7.7 | 0.210 mg/pellet | > 1 mg/pellet | < 0.8 | – |
| CCCCC(=O)O[C@]1(C(=O)CSC(=O)CCCC)CC[C@H]2[C@@H]3C[C@H](C)C4=CC(=O)C=C[C@]4(C)[C@H]3[C@@H](O)C[C@@]21C [Ex. 6, 11β-hydroxy-6α-methyl-pregna-1,4-diene-3,20-dione (or 6α-methylprednisolone) 17-valerate, 21-thiovalerate] | > 1 mg/pellet | < 0.86 | 8.9 | 0.180 mg/pellet | > 1 mg/pellet | < 0.8 | – |
| CCCCC(=O)O[C@]1(C(=O)CSC(C)=O)CC[C@H]2[C@@H]3C[C@H](C)C4=CC(=O)C=C[C@]4(C)[C@H]3[C@@H](O)C[C@@]21C [Ex. 7, 11β-hydroxy-6α-methyl-pregna-1,4-diene-3,20-dione (or 6α-methylprednisolone) 17-valerate, 21-thioacetate] | > 1 mg/pellet | < 0.86 | 2.0 | 0.800 mg/pellet | > 1 mg/pellet | < 0.8 | – |
| CC(=O)OC1(C(=O)CSC(C)=O)C(C)CC2C3CCC4=CC(=O)C=CC4(C)C3(F)C(O)CC21C (stereo not drawn) [Ex. 8, 9α-fluoro-11β-hydroxy-16β-methyl-pregna-1,4-diene-3,20-dione (or betamethasone) 17-acetate, 21-thioacetate] | 1.20 mg/pellet | 0.71 | 22 | 0.072 mg/pellet | 1 mg/pellet | 0.8 | – |
| CCC(=O)SCC(=O)C1(OC(C)=O)C(C)CC2C3CCC4=CC(=O)C=CC4(C)C3(F)C(O)CC21C (stereo not drawn) [Ex. 9, 9α-fluoro-11β-hydroxy-16β-methyl-pregna-diene-3,20-dione (or betamethasone) 17-acetate, 21-thiopropionate] | 1.70 mg/pellet | 0.51 | 16 | 0.100 mg/pellet | 1 mg/pellet | 0.8 | – |
| CCC(=O)OC1(C(=O)CSC(C)=O)C(C)CC2C3CCC4=CC(=O)C=CC4(C)C3(F)C(O)CC21C (stereo not drawn) [Ex. 10, 9α-fluoro-11β-hydroxy-16β-methyl-pregna-1,4-diene-3,20-dione (or betamethasone) 17-propionate, 21-thioacetate] | 0.25 mg/pellet | 3.40 | 124 | 0.013 mg/pellet | > 1 mg/pellet | < 0.8 | more than 100 times |
| CCC(=O)OC1(C(=O)CSC(=O)CC)C(C)CC2C3CCC4=CC(=O)C=CC4(C)C3(F)C(O)CC21C (stereo not drawn) [Ex. 11, 9α-fluoro-11β-hydroxy-16β-methyl-pregna-1,4-diene-3,20-dione (or betamethasone) 17-propionate, 21-thiopropionate] | 0.46 mg/pellet | 1.9 | 134 | 0.012 mg/pellet | 0.8 mg/pellet | 1 | more than 100 times |
| CCCCC(=O)OC1(C(=O)CSC(=O)CCCC)C(C)CC2C3CCC4=CC(=O)C=CC4(C)C3(F)C(O)CC21C (stereo not drawn) [Ex. 12, 9α-fluoro-11β-hydroxy-16β-methyl-pregna-1,4-diene-3,20-dione (or betamethasone) 17-valerate, 21-thiovalerate] | > 0.8 mg/pellet | < 1 | > 129 | < 0.0125 mg/pellet | > 0.8 mg/pellet | < 1 | more than 100 times |
| CCCCC(=O)OC1(C(=O)CSC(C)=O)C(C)CC2C3CCC4=CC(=O)C=CC4(C)C3(F)C(O)CC21C (stereo not drawn) [Ex. 13, 9α-fluoro-11β-hydroxy-16β-methyl-pregna-1,4-diene-3,20-dione (or betamethasone) 17-valerate, 21-thioacetate] | 0.8 mg/pellet | 1.1 | 32.2 | 0.050 mg/pellet | 0.65 mg/pellet | 1.23 | – |
| CC(=O)OC1(C(=O)CSC(=O)CC(C)(C)C)C(C)CC2C3CCC4=CC(=O)C=CC4(C)C3(F)C(O)CC21C (stereo not drawn) [Ex. 14, 9α-fluoro-11β-hydroxy-16α-methyl-pregna-1,4-diene-3,20-dione (or dexamethasone) 17-acetate, 21-thio-tert.butyl-acetate] | 0.33 mg/pellet | 2.6 | 537 | 0.003 mg/pellet | 0.015 mg/pellet | 53 | more than 100 times |
| CCC(=O)OC1(C(=O)CSC(=O)CC)C(C)CC2C3CCC4=CC(=O)C=CC4(C)C3(Cl)C(O)CC21C (stereo not drawn) [Ex. 15, 9α-chloro-11β-hydroxy-16β-methyl-pregna-1,4-diene-3,20-dione (or beclomethasone) 17-propionate, 21-thiopropionate] | 2.4 mg/pellet | 0.36 | > 322 | < 0.005 mg/pellet | 0.56 mg/pellet | 1.42 | more than 100 times |
| CCCCC(=O)SCC(=O)C1(OC(=O)CC)C(C)CC2C3CCC4=CC(=O)C=CC4(C)C3(Cl)C(O)CC21C (stereo not drawn) [Ex. 16, 9α-chloro-11β-hydroxy-16β-methyl-pregna-1,4-diene-3,20-dione (or beclomethasone) 17-propionate, 21-thiovalerate] | > 1 mg/pellet | < 0.86 | 13.4 | 0.120 mg/pellet | > 1.0 mg/pellet | < 0.8 | – |

— patent US4427671A, “Steroids esterified in position 17 and thioesterified in position 21, a process for preparing them and their use as medicaments” (priority 1981, dated 1984)
